One assay deals with LoVo/DX. Description: Cytostatic activity, panel: LoVo/DX resistant to doxorubicin. In kind it is cell-based. Particulars: for RI LoVo LoVo/DX: IC50(resistant cells)/IC50(sensitive cells). From the text: (§1) Tables 8A and 8B present cytostatic activity in vitro of selected anthrapyridazone derivatives according to the invention against panel of sensitive and resistant cell lines, in comparison with doxorubicin, cisplatine and mitoxantrone.

For the next assay, the system named is HL60/MX2. Description: Cytostatic activity, panel: HL60/MX2 resistant to mitoxantrone. In kind it is cell-based.
Description: as §1

In the next assay the test system is uterus cancer MES-SA. The assay can be described thus: Cytostatic activity, panel: uterus cancer MES-SA. It counts as cell-based. Conditions: 72 h continuous exposure.
Description: as §1

Assay [1] relates to lymphoblastic leukemia CCRF-CEM. The assay can be described thus: Cytostatic activity, panel: lymphoblastic leukemia CCRF-CEM. In kind it is cell-based. Particulars: 72 h continuous exposure.
Description: as §1

The subject of the next assay is CEM/C2. The assay can be described thus: Cytostatic activity, panel: CEM/C2 resistant to camptotecine. It counts as cell-based.
Description: as §1

The subject of another assay is colon cancer LoVo. Description: Cytostatic activity, panel: colon cancer LoVo. It counts as cell-based. Conditions: 72 h continuous exposure.
Description: as §1

Another assay concerns MES-SA/DX5. Description: Cytostatic activity, panel: MES-SA/DX5 resistant to doxorubicin. It counts as cell-based. Particulars: for RI MES-SA MES-SA/DX5: IC50(resistant cells)/IC50(sensitive cells).
Description: as §1

Assay [2] relates to promyelolytic leukemia HL-60. The assay can be described thus: Cytostatic activity, panel: promyelolytic leukemia HL-60. In kind it is cell-based. Particulars: 72 h continuous exposure.
Description: as §1

Assay [3] has as its system human prostate cancer cell line PC3. Description: Cytostatic activity in vitro, prostate cancer PC3. Conditions: 72 h continuous exposure. It counts as cell-based. From the text:
(§2) Table 5 presents activity in vitro of anthrapiridazone derivatives towards three cell lines of prostate cancer, naturally multidrug resistant, in comparison with references doxorubicin, mitoxantrone and taxol.

For assay [4], the system named is HL60/VINC. Description: Substrate properties: activity against HL60/VINC in the presence of cyclosporine A (MDR-1 pump inhibitor). In kind it is cell-based, human. Conditions: FIG. 2. An excerpt: FIG. 2 shoes experimentally determined substrate properties of selected antgraoyridazone derivatives vs. Doxorubicin and Mitroxantrone. Activity in vitro against human promyelacytic leykemia cell line HL60/VINC in the presence of cyclosporine A (MDR-1 pump inhibitor).

Assay [5] has as its system human promyelocytic leukemia cell line HL-60. Description: Cytostatic activity in vitro, HL-60 sensitive line. Particulars: read-out: HL60 IC50. In kind it is cell-based. From the text: (§3) Tables 3 and 4 show cytostatic activity in vitro of 2,6-disubstituted and 2- or 6-monosubstituted (Tab.3), and of 2,5-disubstituted-(Tab.-4) tetracyclic anthrapyridazone derivatives using leukemia cell line HL-60 and the resistant cell sublines with resistance induced by vincristine (MDR-1) or doxorubicin (MRP). Activity of compounds is differentiated depending on their structure, but in all cases resistance indexes are more advantageous in comparison with reference compounds: doxorubicin and mitoxantrone.

In assay [6] the test system is HL60/DX. Description: Substrate properties: activity against HL60/DX in the presence of BSO (MRP pump inhibitor). In kind it is cell-based, human. Conditions: FIG. 3. From the text: Activity in vitro against human promyelolytic leukemia HL60/DX in the presence of D-L-buthionine-(S,R)-sulphoximine (BSO), MRP pump inhibitor.
For assay [7], the system named is human breast cancer cell line MCF7. The assay can be described thus: Cytostatic activity in vitro, breast cancer MCF7. Particulars: Homo sapiens, MCF7; 72 h continuous exposure. It counts as cell-based. An excerpt:
(§4) It should be mentioned that resistance index is above one order of magnitude better in comparison with doxorubicin and mitoxantrone.

The subject of assay [8] is human colon adenocarcinoma HT29. Description: Cytostatic activity in vitro, colon adenocarcinoma HT29. In kind it is cell-based. Particulars: Homo sapiens, HT-29; 72 h continuous exposure. From the text:
(§5) Table 7 presents activity in vitro of selected anthrapyridazone derivatives according to the invention towards sensitive and resistant (MDR-1 type) cell line of human colon adenocarcinoma with resistance induced by mitoxantrone.

In assay [9] the test system is human prostate cancer cell line DU145. Description: Cytostatic activity in vitro, prostate cancer DU145. Conditions: 72 h continuous exposure. It counts as cell-based.
Description: as §2

The subject of the next assay is HT29/MIT. Description: Cytostatic activity in vitro, mitoxantrone-induced resistant subline HT29/MIT. It counts as cell-based, human.
Description: as §5

In the next assay the test system is MCF7/DX. The assay can be described thus: Cytostatic activity in vitro, resistant breast cancer subline MCF7/DX (MDR-1). In kind it is cell-based, human.
Description: as §4

A further assay relates to CT-DNA. Description: Interaction with isolated CT-DNA, fluorescence competition with ethidium bromide. It counts as binding. Conditions: for IC50: 50% decrease in fluorescence intensity of DNA-bromide ethydine complex; for Kapp relative constant of DNA-compound bonding: Kapp = (1.26/C50) × KEtBr, KEtBr = 10^7M. From the text:
It could be supposed that this property explains cytostatic activity of compounds. In Table 9 there are presented quantitative data on the affinity to DNA of tested compounds using the fluorescence method and competitive affinity to DNA of bromine ethydine and tested compounds.

Assay [10] concerns HL60/VINC. The assay can be described thus: Cytostatic activity in vitro, vincristine-induced resistant subline (MDR-1). It counts as cell-based, human. Conditions: for RI resistance index HL60/VINC: HL60/VINC vs HL60, 72 h.
Description: as §3

Assay [11] deals with human prostate cancer cell line LNCaP. Description: Cytostatic activity in vitro, prostate cancer LNCaP. In kind it is cell-based. Particulars: 72 h continuous exposure.
Description: as §2

Assay [12] relates to HL60/DX. The assay can be described thus: Cytostatic activity in vitro, doxorubicin-induced resistant subline (MRP). In kind it is cell-based, human. Conditions: for RI resistance index HL60/DX: IC50(resistant cells)/IC50(sensitive cells).
Description: as §3

The mark [13] stands for this setting: IC50(resistant cells)/IC50(sensitive cells).
Where [14] appears, read: Homo sapiens, HL-60, 96 h continuous exposure.
The mark [15] stands for this setting: 50% inhibition of cell growth after 72 h continuous exposure.

Values after ≈ are worked out from the molar mass of the structure shown. Read-outs that look alike come from different tables or passages of the source.

`N.N.[Cl][Pt][Cl]` [Cisplatina]: the “IC50 LoVo/DX” value in the assay with LoVo/DX (72 h continuous exposure) is 2.51 ± 0.38 µg/mL. Further, in the assay on LoVo/DX, the “RI LoVo LoVo/DX” value was 1.6. In addition, in the assay with HL60/MX2 (72 h continuous exposure), the “IC50 HL60/MX2” value was determined as 0.56 ± 0.30 µg/mL. For the same molecule, in the assay with HL60/MX2 (setting [13]), the “RI HL60 HL60/MX2” value is on record as 2.5. Further, the “IC50 MES-SA” value in the assay on uterus cancer MES-SA is 2.26 ± 0.58 µg/mL. For the same molecule, in assay [1], the “IC50 CCRF-CEM” value was determined as 1.44 ± 0.49 µg/mL. Moreover, the “IC50 CEM/C2” value with CEM/C2 (72 h continuous exposure) was determined as 0.44 ± 0.19 µg/mL. For the same molecule, in the assay with CEM/C2 (setting [13]), the “RI CCRF-CEM CEM/C2” value is reported as 0.3. Further, the “IC50 LoVo” value with colon cancer LoVo amounted to 1.59 ± 0.31 µg/mL. Besides, in the assay with MES-SA/DX5 (72 h continuous exposure), the “IC50 MES-SA/DX5” value was 3.29 ± 0.15 µg/mL. Further, the “RI MES-SA MES-SA/DX5” value with MES-SA/DX5 was found to be 1.5. Besides, in assay [2], the “IC50 HL60” value is 0.22 ± 0.12 µg/mL.
As a reminder, the IC50 is the concentration needed to halve the response being measured. On to `COc1cccc2c1C(=O)c1c(O)c3c(c(O)c1C2=O)C[C@@](O)(C(=O)CO)C[C@@H]3O[C@H]1C[C@H](N)[C@H](O)[C@H](C)O1` [Doxorubicin, reference compound], for which the 50% inhibitory concentration (IC50) in assay [3] (Homo sapiens) stood at 106 ± 7 nM; in the assay on LoVo/DX (LoVo/DX, 72 h continuous exposure) it was 12.1 µg/mL (≈ 22.2 µM); in assay [5] (Homo sapiens, HL-60, 50% inhibition of cell growth after 72 h continuous exposure) it was 16 ± 1 nM; in [5] (setting [14]), 9.5 ± 2 nM; in assay [7], 19 ± 3.3 nM; in assay [8] it was 64.5 ± 19.2 nM. In addition, the concentration for half-maximal inhibition (IC50) in the assay on uterus cancer MES-SA (Homo sapiens, MES-SA) was 0.0705 µg/mL (≈ 0.13 µM); in [9] (Homo sapiens, DU-145), 38 ± 7.6 nM; in the assay with HT29/MIT (Homo sapiens, HT-29, 72 h continuous exposure), 97.1 ± 20.9 nM; in the assay on colon cancer LoVo (Homo sapiens, LoVo) it was 0.224 µg/mL (≈ 0.413 µM); in the assay on MCF7/DX (Homo sapiens, MCF7/DX, 72 h continuous exposure), 932 ± 145 nM; in the assay on MES-SA/DX5 (Homo sapiens, MES-SA/Dx5, 72 h continuous exposure), 13.6 µg/mL (≈ 25 µM). For the same molecule, the IC50 in the assay on CT-DNA came to 80 nM; in the assay with HL60/VINC [10] (Homo sapiens, HL60/vinc, 72 h continuous exposure) it was 882 ± 68 nM; with HL60/VINC [10] (Homo sapiens, HL60/vinc, 96 h continuous exposure, read-out: HL60VINC IC50), 734 ± 72 nM; in [11] (Homo sapiens, LNCaP) it was 22.4 ± 1.9 nM; in the assay on HL60/DX [12] (Homo sapiens, HL-60, 72 h continuous exposure), 9480 ± 1300 nM; in the assay with HL60/DX [12] (setting [14]) it was 1860 ± 143 nM. Also, the “Effect of blocking MDR-1 pump with cyclosporine A (CSA) on cytostatic activity” value with HL60/VINC [4] is recorded as “has positive influence on maintaining the cytostatic activity”. Also, the “RI LoVo LoVo/DX” value in the assay with LoVo/DX came out at 54.7. Also, in the assay with HL60/DX [6], the “Effect of MRP protein inhibitor (BSO) on cytostatic activity” value is listed as “essentially influences the cytostatic activity”. Besides, the “RI resistance index HT29/MIT” value in the assay on HT29/MIT (IC50(resistant cells)/IC50(sensitive cells), HT29/MIT vs HT29) worked out at 1.5. Further, the “RI resistance index MCF7/DX” value in the assay with MCF7/DX (IC50(resistant cells)/IC50(sensitive cells), MCF7/DX vs MCF7) stood at 49.1. In addition, the “RI MES-SA MES-SA/DX5” value in the assay on MES-SA/DX5 was 181.2. Also, the Kapp relative constant of DNA-compound bonding with CT-DNA is 1.5e+08 M⁻¹. Also, the “RI resistance index HL60VINC” value with HL60/VINC [10] (IC50(resistant cells)/IC50(sensitive cells), 96 h) is 77.3. In addition, the “RI resistance index HL60/VINC” value in the assay with HL60/VINC [10] (setting [13]) was found to be 55.1. Moreover, the “RI resistance index HL60/DX” value came out at 195.7 with HL60/DX [12] (96 h) and 592.8 in the assay on HL60/DX [12] (HL60/DX vs HL60, 72 h).
As for `O=C1c2ccccc2-c2nn(CCN3CCCCC3)c(=O)c3ccc(NCCNCc4ccccc4)c1c23` [PDZ-17, 2-[2-(Piperidinamino)ethyl]-6-(2-benzylaminoethylamino)-2,7-dihydro-3H-dibenzo [de,h]cynnoline-3,7-dione], the IC50 came to 606 ± 38 nM in [3]; 98 ± 19 nM in assay [5] (setting [15]); 344 ± 43 nM in [9]; 460 ± 80 nM with CT-DNA; 477 ± 39 nM in the assay with HL60/VINC [10] (72 h continuous exposure); 166 ± 40 nM in assay [11]. Also, in the assay on HL60/DX [12] (72 h continuous exposure), the IC50 came out at 2870 ± 447 nM. The molecule further gave a Kapp relative constant of DNA-compound bonding in the assay on CT-DNA of 2.72e+07 M⁻¹. Further, the “RI resistance index HL60/VINC” value in the assay with HL60/VINC [10] (setting [13]) is 4.9. For the same molecule, the “RI resistance index HL60/DX” value with HL60/DX [12] (HL60/DX vs HL60, 72 h) is 29.3.
In the case of `Nc1ccc2c(=O)n(CCN3CCCCC3)nc3c2c1C(=O)c1ccccc1-3` [PDZ-5, 2-[2-(Piperidinamino)ethyl]-6-amino-2,7-dihydro-3H-dibenzo[de,h]-cynnoline-3,7-dione], the IC50 was found to be 886 ± 170 nM in [3]; 382 ± 56 nM in assay [5] (setting [15]); 538 ± 45 nM in assay [9]; 1690 ± 100 nM with CT-DNA; 677 ± 29 nM in the assay on HL60/VINC [10] (72 h continuous exposure); 474 ± 76 nM in assay [11]. The molecule also came in with a 50% inhibitory concentration (IC50) with HL60/DX [12] (72 h continuous exposure) of 1360 ± 135 nM. This molecule registered a Kapp relative constant of DNA-compound bonding with CT-DNA of 7.5e+06 M⁻¹. Also, the “RI resistance index HL60/VINC” value in the assay on HL60/VINC [10] (setting [13]) stood at 1.8. For the same molecule, in the assay with HL60/DX [12] (HL60/DX vs HL60, 72 h), the “RI resistance index HL60/DX” value is 3.6.

The record behind these values is patent publication US9096536B2, “Asymmetrically substituted anthrapyridazone derivatives as cytostatics” (BS-154 S.P. ZO.O., priority 2011, dated 2015).
